Source: patent US9981037B2, “Combination therapy of beta-glycolipids and antibodies for the treatment of immune-related disorders” (HADASIT MEDICAL RESEARCH SERVICES AND DEVELOPMENT LTD., priority 2008, dated 2018)

Assays:
[1] = tested on: Peripheral blood lymphocytes; assay: Proliferation of peripheral blood lymphocytes stimulated in vitro with anti-CD3 antibody; format: in vivo, human
Procedure: Nine subjects (3/group) were orally administered 0.2 mg, 1.0 mg or 5.0 mg of OKT3 daily for 5 days and immune parameters measured on days 5, 10 and 30 days (FIG. 12). Six subjects (3/group) received 7.5 mg of beta glucosylceramide in combination with 0.2 mg or 1.0 mg of OKT3 and 3 subjects received GC alone. All subjects were treated with 20 mg of Omeprazole (a proton pump inhibitor) during the 5 days of dosing. Dosing occurred in the morning before breakfast at the study site following a 8 hours fast. PBMCs were isolated from blood samples using Ficol Hypaque solution. To measure proliferation, 2×10^5 cells per well were cultured in triplicate in RPMI 1640 medium with 5% FBS (Biological Industries, Israel), 100 units/ml penicillin, 100 µg/ml streptomycin, 1% Glutamine, 1% non essential […], 1% sodium pyruvate and β-mercapto-ethanol (Biological Industries, Israel). Cells were stimulated with pre-coated antibodies (in 200 μl PBS/well):μg/well of anti OKT-3 mAb (Ortho Biotech Inc, New Jersey, USA) or 5 μg/ml soluble anti-CD3 mAb (eBioscience, CA, USA) or 2.5 μg/ml anti-CD28 mAb (R&D systems, MN, USA). One set of the above wells were added nothing while 10 μg of GC was added to a similar set for 72 h in culture at 37° C. with 5% CO2. Supernatants were collected for IL-13, IL-17 and IFN-γ. Enzyme-linked immunosorbent assays for these cytokines were performed according to the manufacturer's protocol (R&D Systems, Minneapolis, Minn.). For TGF-β, 2×10^5 cells per well were cultured in serum free media (Biotarget, Biological Industries, Israel). After collecting the supernatants, 1 µCi [^3H]thymidine (Amersham Biosciences, UK) was added to each well, and cells were harvested 18 h later. Proliferation was measured by scintillation counting. Unlike what has been reported for treatment with IV anti-CD3 (which is also given at a dose of 5 mg per day for five days), no decrease in the CD3+ lymphocyte counts or modulation of CD3 from the T cell surface was observed. […] An identical pattern was observed when results were calculated as stimulation indices.

T cells = assay: FACS of activation and regulatory markers on T cells; format: in vivo, human
Procedure: Frozen PBMCs were used for sorting different cell populations, surface staining, and proliferation assays, and cytokine measurements. Cell sorting was performed by thawing […] PBMCs at room temperature (RT) and washing themed twice in medium at RT in 50-ml tubes in a 10-ml volume at 1,400 rpm. Cells were suspended to 20×10^6/ml and stained with seven colors staining of cells using Fc block, Lin-FITC, CD11c-APC, CD123-PE, CD3-Amcyan, CD4-Alexa700, CD25-PB, and 7-AAD was performed. Compensation controls, including an unstained control, were prepared. All samples were washed with medium and filtered into 15-ml tubes with 2 ml volume each to a total volume of 2 ml. CD4+ effector T cells, CD4+ regulatory T cells, myeloid DCs, and plasmacytoid DCs were sorted. Tubes were washed to get retrieve all sticky cells and spin them at 1,400 rpm. All cell populations were put in 350 μl of RLT 350 ul (lysis buffer), and transferred to eppendorff microtubes, and froze at −70° C. RNA was prepared using Qiagen micro kits (Valencia, Calif., USA) and cDNA was prepared using Applied Biosystems kits (Foster City, Calif., USA). We performed real-time PCR (RT-PCR) for different genes on in regulatory T cells, effector T cells, and DCs was performed.
For surface staining, one tube of frozen PBMCs was thawed at room temperature (RT) and washed twice in medium at RT in 50-ml tubes (10-ml volume) at 1,400 rpm. Cells were re-suspended cells at 8-10×10^6 cells/ml and 100 μl was aliquoted into each of 100 ul in 11 wells. For LAP+ cells (two wells), controls wells were preincubated with rLAP for 20 mins, and seven-colors staining of cells using CD3-Amcyan, CD4-Alexa700, CD8-APC, CD25-PB, and LAP-PE for 40 mins was preformed for 40 minutes. Cells were washed and stained with Annexin FITC and 7-AAD in Annexing binding buffer for 15 minutes. Cells were washed and analyzed immediately in Annexin Binding Buffer.
For Foxp3 surface staining (two wells), surface six-colors staining of cells using CD3-Amcyan, CD4-Alexa700, CD8-APC, and CD25-PB were performed for 30 minutes. Intracellular staining for IC/Foxp3-PE from eBiosciences was followed. For all other surface markers (7wellsseven wells), seven—color staining of cells was performed, using CD3-Amcyan, CD4-Alexa700, CD8-APC, CD25-PB, and Annexin FITC, 7-AAD, and IC/CD62L/CD69/CD45RO/CD127/CD28/HLA-DR-PE was performed. Cells were then washed Wash twice and Fix fixed the cells with 0.1% paraformaldehyde. Compensation controls, including an unstained control, were prepared. (Lin-FITC, CD11c-APC, CD123-PE, and CD3-Amcyan were tested in 1 μl/100 μl; CD4-Alexa700, CD25-PB, and 7-AAD were tested in 0.5 ul/100 μl; and LAP-PE, and Annexin-FITC were tested in 3 ul/100 μl).
For surface staining, freshly isolated PBMCs were suspended at 8-10×10^6 cells/ml. Surface two to three colors staining of cells were done with the following surface antibodies: CD4-FITC/CD25-PE, CD8− FITC/CD25-PE, CD3-APC/CD69-PE, CD11c-APC/Lin-FITC/CD86-PE, CD11c-APC/Lin-FITC/CD83-PE, CD11c-APC/Lin-FITC/HLAdr-PE. For LAP staining cells were preincubated with rLAP/control antibody for 20 mins, and stained with CD4-FITC and CD25-PE or CD8-FITC. […]
The inventors next investigated activation of markers and markers associated with regulation on T cells following oral OKT3 treatment. Regulatory T cells were measured by CD25hi, and effector cells were measured by CD25int/lo markers. […]

OKT3: murine monoclonal anti-CD3 antibody (Orthoclone OKT-3, Ortho Biotech)
subjects with increase in proliferation that peaked at day five ([1]; 0.2 mg oral): one subject | subjects with increase in proliferation that peaked at day five ([1]; 1.0 mg oral daily for 5 days, three subjects): all three subjects | subjects with increase in proliferation that peaked at day five ([1]; 5 mg oral): two subjects | subjects with similar pattern (increase) for CD8+CD25+ T cells (T cells; 0.2 mg oral, not shown): two subjects | CD4+CD25+ and CD8+CD25+ T cells (T cells; 1.0 mg fed group): increase | CD25hi Foxp3+ cells and CD25hi CTLA4 cells (T cells; 1.0 mg oral): increase | expression of TGF-β on CD25int/lo T cells (T cells; 1.0 mg oral): increase | subjects with similar pattern (increase) for CD8+CD25+ T cells (T cells; 1.0 or 5.0 mg oral): all six subjects
